Measurements as given in patent publication US20110151484A1, “hERG MUTANTS AND USES THEREOF” (priority 2008, published 2011).
Like-named read-outs stand apart in the source and are kept apart here.

Tests used:
N588E-hERG = N588E-hERG (Homo sapiens, UniProt Q12809, N588E)
Procedure: (§1) CHO cells were cultured in D-ME/F12 with 10% FBS and maintained at 37° C. in 5% CO2. Cells were studied at least 24 h after being plated on microscope coverslips. Mutant hERG constructs were generated using the Megaprimer PCR method. […] Blank CHO cells were plated onto sterilised glass coverslips. After 24 h, the cells were transfected with mutant hERG constructs using PolyFect Transfection Reagent (Qiagen) according to the manufacturer's instructions. After transfection, the cells were incubated at 37° C. for a minimum of 1 day prior to electrophysiological study. Successfully transfected cells, identified by the expression of eGFP, were studied using the whole-cell configuration of the patch clamp technique.
(§2) Borosilicate glass tubing patch pipettes, with resistances of 1-4 MΩ when filled with internal solution, were made using a vertical 2-stage puller (PP-830; Narishige, Japan). The internal solution contained (in mM) 120 potassium gluconate, 20 KCl, 1.5 MgATP, 5 EGTA and 10 HEPES (pH 7.3 with KOH). […] Currents were amplified (Axopatch 200B amplifier; Molecular Devices, Sunnyvale, Calif.) and digitised (DigiData 1200; Molecular Devices) before storage on a personal computer. Capacitance current transients were electronically subtracted, and series resistance compensation was ˜80% for all experiments. Current signals were digitised at 5 kHz and low-pass filtered at 2 KHz. Some current traces were leak-subtracted off-line. Acquisition was performed using pClamp software.
(§3) Currents were measured with a two-step voltage protocol; a first step to +20 mV for 3 seconds to fully activate the channels and a second step to a negative membrane potential, usually −110 mV (but see below for variations). During this second voltage step hERG channels quickly recover from inactivation and proceed to deactivate.
(§4) Drug block was calculated as I[drug]/Icontrol, with all currents measured at the end of the activating step. […] In this way current was measured at the same time point for all cells.
(§5) Voltage-protocols were repeated at 0.1 Hz. Control currents were recorded 3-5 minutes after patch rupture, i.e. the time take for current levels to stabilise at a steady state level. […] Recording continued until a new steady state block was reached (typically 2-4 minutes). Between 2 and 4 doses of drug were applied to each cell with most experiments completed within 20 minutes.
(§6) Initial data analysis was performed using the Clampfit module of the pClamp 9.0 software. Subsequent data analysis and preparation of data for figures were performed with Mathematica 6 (Wolfram Technologies). All data are expressed as mean ±SEM (n) and statistical significance (P<0.05) was determined using paired t-tests.

WT-hERG = WT-hERG (Homo sapiens, UniProt Q12809)
Procedure: as §1, §2, §3, §4, §5, §6

N588K-hERG = N588K-hERG (Homo sapiens, UniProt Q12809, N588K)
Procedure: Currents were measured with a two-step voltage protocol; a first step to +20 mV for 3 seconds to fully activate the channels and a second step to a negative membrane potential, usually −110 mV (but see below for variations). […]

SMILES	IC50 (N588E-hERG) [µM]	h (Hill plot), N588E (N588E-hERG)	IC50 (WT-hERG) [µM]	h (Hill plot), WT-hERG (WT-hERG)	IC50 (N588K-hERG) [µM]	h (Hill plot), N588E (N588E-hERG; human)	h (Hill plot), WT-hERG (WT-hERG; human)
CC(C)NCC(O)c1ccc(NS(C)(=O)=O)cc1 (racemic) [dl-Sotalol]	586 ± 179	h = 0.8	516 ± 35.5	h = 0.9	1390 ± 266		
COc1cc(N)c(Cl)cc1C(=O)NC1CCN(CCCOc2ccc(F)cc2)CC1OC (stereo not drawn) [Cisapride]						h = 0.8	h = 1.0
C1CCC(C(CC2CCCCN2)C2CCCCC2)CC1 (stereo not drawn) [Perhexiline]						h = 0.8	h = 1.1
